Measured values from patent US20220000117A1, “METHOD FOR CONTROLLING DISEASES IN SMALL GRAIN CEREALS, SEED OF SMALL GRAIN CEREALS, AND METHOD FOR SUPPRESSING LODGING DAMAGE IN SMALL GRAIN CEREALS” (KUMIAI CHEMICAL INDUSTRY CO., LTD., priority 2019, published 2022).

What was measured:
[1] = test system: wheat (variety: Haruyutaka); assay: Test Example 6: evaluation test of shortening of wheat (culm length, seed yield), field; type: in vivo
[2] = test system: wheat (variety: Norin No. 61); assay: Test Example 3: emergence rate of wheat seed; type: in vivo
Procedure: Seed having a mass of 1 kg of wheat (variety: Norin No. 61) was mixed into 100 ml of suspension water containing 5 g or 0.5 g of dichlobentiazox or isotianil and air-dried, and then, 12 seeds were sown in a plastic cup having a diameter of 6 cm containing river sand and managed in a greenhouse. The number of emerged seeds was investigated nine days after seeding, and an emergence rate was calculated (Examples 6 to 9). In Comparative Examples 6 to 9, 20 ml of suspension water of an active ingredient, which had been adjusted to have a concentration shown in Table 4, was sprayed in a frame of 45 cm×45 cm in which a pot of wheat seedlings was placed (corresponding to 1000 L/ha) 14 days after seeding. On day 14 after seeding, conidiospores of powdery mildew were sifted over leaves of wheat seedlings and inoculated onto the leaves (after the sprayed liquid was dried in the case of Comparative Examples), a lesion area ratio of powdery mildew in a first leaf was investigated 19 days after seeding according to the criteria in Table 1, and the degree of disease occurrence was calculated by the above calculation formula (1).

[3] = test system: powdery mildew; assay: Test Example 2: control test of wheat powdery mildew, pot in greenhouse, inoculated, wheat variety Norin No. 61; type: in vivo, Blumeria graminis; conditions: for Degree of Disease Occurrence: inoculated day 49, first leaf, 59 days after seeding
Procedure: (§1) Degree of Disease Occurrence=Σ(Index×Number of Leaves of Index)/(4×Number of Investigated Leaves)×100 (1)
Seed having a mass of 1 kg of wheat (variety: Norin No. 61) was mixed into 100 ml of suspension water containing 5 g or 0.5 g of dichlobentiazox or isotianil (commercial Routine flowable was used, “Routine” is a registered trademark) and air-dried, and then, 15 seeds were sown in a plastic pot of 9 cm×9 cm containing horticultural soil and managed in a greenhouse. The number of emerged seeds was investigated 10 days after seeding, and an emergence rate was calculated (Examples 2 to 5). On day 49 after seeding, conidiospores of powdery mildew were sifted over leaves of wheat seedlings and inoculated onto the leaves, a lesion area ratio of powdery mildew in a first leaf was investigated 59 days after seeding according to the criteria in Table 1, and the degree of disease occurrence was calculated by the above calculation formula (1).

[4] = test system: septoria leaf blotch; assay: Test Example 7: control test of septoria leaf blotch of wheat, field, wheat variety TRAPEZ; type: in vivo, Septoria tritici; conditions: for Degree of Disease Occurrence: flag leaves, 219 days after seeding
Procedure: as §1
Seed of wheat (variety: TRAPEZ) was used. On seed having a mass of 1 kg, 20 ml of suspension water containing 0.5 g or 5 g of dichlobentiazox or isotianil was sprayed. In Examples 16, 17, and 18, the seed treated with the chemical was stripe-sown with a ratio of 100 kg/ha. In contrast, in Comparative Example 17, seed which had not treated with dichlobentiazox or isotianil was sown in a field in the same manner, and a spray solution corresponding to that obtained by suspending 750 g of chlomthalonil (commercial FUNGISTOP was used, “FUNGISTOP” is a registered trademark) in 200 liters of water per 1 ha was sprayed on foliage of wheat 154 days and 184 days after seeding. The severity of disease occurrence of septoria leaf blotch in flag leaves of 25 stems was investigated 219 days after seeding according to the criteria in Table 1, and the degree of disease occurrence was calculated by the above calculation formula (1).

[5] = Seed Treatment 0.5 g/Seed 1 kg (50 g/ha)
[6] = Seed Treatment 5 g/Seed 1 kg (500 g/ha)

O=S1(=O)N=C(OCc2snc(Cl)c2Cl)c2ccccc21 [Compound (1), Dichlobentiazox]
Culm Length (cm) ([1]; Dichlobentiazox Seed Treatment 5 g/Seed 1 kg plus Propiconazole foliage spray 120 g/ha four times, harvested 106 days after seeding): 80.1 cm | Seed Yield ([1]; Dichlobentiazox Seed Treatment 5 g/Seed 1 kg plus Propiconazole foliage spray 120 g/ha four times, wheat in 3 m2, 106 days after seeding): 1015 g | culm length in harvesting time, compared with no seed treatment ([1]; seed treatment): slightly shorter | yield amount of wheat grains, compared with no seed treatment ([1]; seed treatment): slightly higher | Emergence Rate (%) ([2]; Foliage Treatment group, spray 50 ppm (50 g/ha) 14 days after seeding, emergence counted nine days after seeding): 100% | Emergence Rate (%) ([2]; Foliage Treatment group, spray 500 ppm (500 g/ha) 14 days after seeding, emergence counted nine days after seeding): 97% | Emergence Rate (%) ([2]; Seed Treatment 0.5 g/Seed 1 kg (50 g/ha), nine days after seeding): 97% | Emergence Rate (%) ([2]; Seed Treatment 5 g/Seed 1 kg (500 g/ha), nine days after seeding): 100% | Degree of Disease Occurrence [3, 5]: 10.7 | Degree of Disease Occurrence [3, 6]: 0.0 | disease occurrence under artificial inoculation of powdery mildew ([3]; seed treatment): the disease occurrence was suppressed | Degree of Disease Occurrence [4, 5]: 2.8 | Degree of Disease Occurrence [4, 6]: 1.9 | disease occurrence of septoria leaf blotch, seed treatment compared with foliage spraying of chlorothalonil ([4]; seed treatment): more suppressed
